Tests used:
[1] = system: Newcastle Disease virus; assay type: cell-based; details: tissue-culture
[2] = feed-utilization efficiency in sheep; assay type: in vivo; details: 56 days; for Feed Intake: control 3.56; for Feed/Gain: control 8.38; for Average Daily Gain: control .42
[3] = system: Semliki Forest virus; assay: in vitro plaque suppression test; assay type: cell-based
[4] = system: herpes virus; assay: in vitro plaque suppression test; assay type: cell-based
[5] = system: Infectious Bovine Rhinotracheitis virus; assay type: cell-based
[6] = system: vaccinia virus; assay type: cell-based; details: in vitro plaque suppression
[7] = system: E. necatrix and E. tenella; assay: anticoccidial activity in chicks, mixed infection (Table X); assay type: in vivo; details: 0.005 percent in feed
Description: (§1) ^1 Four replicates, 5 broiler cockerels each.

[8] = system: E. tenella, E. necatrix, E. maxima, E. brunetti, E. acervulina, and E. mivati; assay: as above; assay type: in vivo; details: 0.01 percent in feed
Description: as §1

[9] = system: Staphylococcus aureus (H-Heatley) NRRL B-314; assay: turbidometric assay on semiautomated system (Autoturb), relative gram-positive activity; assay type: cell-based; details: relative to A-28086 factor A (standard); nutrient broth pH 7, four hours at 37° C.
Experimental: The C2 -C6 -acyl ester derivatives of A-28086 factor A also have antibacterial and antifungal activity. In one aspect, these derivatives have increased gram-positive activity. The relative gram-positive activities of certain of these derivatives were compared with the activity of factor A. The compounds were tested by turbidometric assay on a semiautomated system (Autoturb® microbiological assay system, Elanco) described by N. R. Kuzel and F. W. Kavanaugh in J. Pharmaceut. Sci. 60 (5), 764 and 767 (1971). In testing the A-28086 antibiotics, the following test parameters were used: Staphylococcus aureus (H-Heatley) NRRL B-314 in a nutrient broth medium (pH 7), incubated for four hours at 37° C. Test samples and the standard were dissolved in methanol-water (10:90). The standard, A-28086 factor A, was presented to the Autoturb® carrousel at concentrations of 2, 3, 4, and 5 mcg/ml. Test compounds were diluted to contain approximately 3 or 4 mcg of activity per ml, as presented to the carrousel. The relative activities of test compounds, as compared to that of the standard, are given below: […]

[10] = system: ruminal propionic acid; assay: ruminal propionic acid concentration in fistulated steers; assay type: in vivo; details: mean of five analyses in 14-day treatment
Experimental: The test reported in Table XII was conducted with mature fistulated steers weighing about 1,000 lbs. each. Two steers were fed a normal diet, and four steers in each treatment group were fed an identical diet to which A-28086 factor A had been added. To each aliquot (100 ml) of rumen fluid taken, 10 percent metaphosphoric acid (100 ml) was added. The samples were allowed to settle, and the supernatants were analyzed by gas chromatographic methods to determine propionic acid concentrations.
The results in Table XII are the mean percent increases in ruminal propionic acid concentration, averaged over five analyses in a 14-day treatment period. Controls had approximately 20 molar percent propionic acid.

[11] = system: Eimeria tenella; assay: anticoccidial activity in chicks (Table VIII); assay type: in vivo; details: for Percent Weight Gain: normal controls 100
[12] = system: rumen fluid; assay: in vitro rumen fluid volatile fatty acid production; set-up: species or system steer; details: 1 ppm in rumen fluid, 16 hours at 38° C.
Description: As discussed hereinabove, efficiency of carbohydrate utilization in ruminants is increased by treatments which stimulate the amimal's rumen flora to produce propionate compounds rather than acetate or butyrate compounds. The efficiency of feed use can be monitored by observing the production and concentration of propionate compounds in the rumen, using the following methods:
Remen fluid is obtained from a steer with a surgically-installed fistula opening into the rumen. The steer is maintained on a high-grain ration. A sample of rumen fluid is strained through four layers of cheesecloth, and the filtrate is collected. The particulate matter retained by the cheesecloth is resuspended in enough physiological buffer to return it to the original volume of the rumen fluid, and this suspension is strained again. The buffer used has the following composition:
The two filtrates are combined and allowed to stand until particulate matter separates to the top. The clear layer is separated, diluted with the same buffer (1:1) and then adjusted to between pH 6.8 to 7.0.
The diluted rumen fluid (10 ml) is placed in a 25-ml flask with 40 mg of the above-described feed, an additional 1 mg of soybean protein, and the compound to be tested. Four replicate flasks are used per treatment. Two sets of four control flasks each are also employed. A zero-time control and an incubated 16-hour control are used. All test flasks are incubated for 16 hours at 38° C. […] The samples are allowed to settle, and the supernatants are analyzed by gas chromatography for propionate, acetate, and butyrate compounds.

[13] = solubility; assay type: physicochemical
[14] = system: Transmissible Gastro-enteritis virus; assay type: cell-based
[15] = first group, 0.01 percent in feed
[16] = first group, 0.02 percent in feed
[17] = first group, 0.04 percent in feed
[18] = second group, 0.0025 percent in feed
[19] = second group, 0.005 percent in feed
[20] = second group, 0.01 percent in feed
[21] = second group, 0.02 percent in feed

## CCC(C(=O)O)C1OC(C(C)C(O)C(C)C(=O)C(CC)C2OC3(C=CC(O)C4(CCC(C)(C5CCC(O)(CC)C(C)O5)O4)O3)C(C)CC2C)C(C)CC1C (centres unmarked) [A-28086 factor A]
[1]
  antiviral activity: active
[2]; 9 g per ton of feed
  Feed Intake: 3.29 lbs./day
  Feed/Gain: 7.40
  Average Daily Gain: .44 lbs./day
[2]; 18 g per ton of feed
  Feed Intake: 3.15 lbs./day
  Feed/Gain: 8.31
  Average Daily Gain: .38 lbs./day
[2]; sheep
  feed-utilization efficiency (in words): increases feed-utilization efficiency
[3]
  antiviral activity: active
[4]
  antiviral activity: active
[5]
  antiviral activity: active
[6]
  antiviral activity: active
[7]
  Cecal Lesions, Percent Reduction: 50%
  Intestinal Lesions, Percent Reduction: 59%
[7]; infected controls 1.7
  Intestinal Lesions, Average: 0.7
[7]; infected controls 3.5
  Cecal Lesions, Average: 1.75
[7]; infected controls 20
  Percent Mortality: 0%
[7]; infected controls 52
  Percent Weight Gain: 94%
[8]
  Cecal Lesions, Percent Reduction: 73%
  Intestinal Lesions, Percent Reduction: 79%
[8]; infected controls 1.9
  Intestinal Lesions, Average: 0.4
[8]; infected controls 3.3
  Cecal Lesions, Average: 0.9
[8]; infected controls 12
  Percent Weight Gain: 91%
[8]; infected controls 50
  Percent Mortality: 0%
[9]
  Relative G+ Activity: 1
[10]; 25 mg/day
  Percent Increase Over Control in ruminal propionic acid concentration: 17.4%
[10]; 100 mg/day
  Percent Increase Over Control in ruminal propionic acid concentration: 54.0%
[11]; [15]
  Percent Reduction in Lesion Score: 95%
  Percent Weight Gain: 94%
[11]; first group, 0.01 percent in feed, 10 chickens
  Percent Mortality: 0%
[11]; first group, 0.01 percent in feed, infected controls 3.65
  Average Lesion Score: 0.2
[11]; [16]
  Percent Reduction in Lesion Score: 95%
  Percent Weight Gain: 82%
[11]; first group, 0.02 percent in feed, 10 chickens
  Percent Mortality: 0%
[11]; first group, 0.02 percent in feed, infected controls 3.65
  Average Lesion Score: 0.2
[11]; [17]
  Percent Reduction in Lesion Score: 100%
  Percent Weight Gain: 50%
[11]; first group, 0.04 percent in feed, 10 chickens
  Percent Mortality: 0%
[11]; first group, 0.04 percent in feed, infected controls 3.65
  Average Lesion Score: 0
[11]; [18]
  Percent Reduction in Lesion Score: 0%
  Percent Weight Gain: 87%
[11]; second group, 0.0025 percent in feed, 20 chickens
  Percent Mortality: 10%
[11]; second group, 0.0025 percent in feed, infected controls 3.85
  Average Lesion Score: 3.85
[11]; [19]
  Percent Reduction in Lesion Score: 27%
  Percent Weight Gain: 91%
[11]; second group, 0.005 percent in feed, 20 chickens
  Percent Mortality: 0%
[11]; second group, 0.005 percent in feed, infected controls 3.85
  Average Lesion Score: 2.8
[11]; [20]
  Percent Reduction in Lesion Score: 100%
  Percent Weight Gain: 96%
[11]; second group, 0.01 percent in feed, 20 chickens
  Percent Mortality: 0%
[11]; second group, 0.01 percent in feed, infected controls 3.85
  Average Lesion Score: 0
[11]; [21]
  Percent Reduction in Lesion Score: 100%
  Percent Weight Gain: 84%
[11]; second group, 0.02 percent in feed, 20 chickens
  Percent Mortality: 0%
[11]; second group, 0.02 percent in feed, infected controls 3.85
  Average Lesion Score: 0
[12]
  Ratio of Treated to Control, Molar % acetate: 0.94
  Ratio of Treated to Control, Molar % butyrate: 0.87
  Ratio of Treated to Control, Molar % propionate: 1.34
  Ratio of Treated to Control, Total VFA mM/l: 1.26
[13]; organic solvents such as methanol, ethanol, DMF, DMSO, ethyl acetate, chloroform, acetone, benzene
  solubility in organic solvents: soluble
[13]; water
  solubility in water: insoluble in water
[14]
  antiviral activity: active

From patent US4085224A, “Method of increasing feed utilization” (Eli Lilly and Company, priority 1976, dated 1978)
